Laboratory results from ChEMBL document CHEMBL2429798, “Antioxidant effectiveness generated by one or two phenolic hydroxyl groups in coumarin-substituted dihydropyrazoles” (Eur J Med Chem, 2013).
The source made the active and inactive calls. No cut-off for these calls is given here.

Assays:
Assay type in all cases: functional
[1] = Antioxidant activity assessed as galvinoxyl radical scavenging activity at 15 uM
[2] = test system: Radical scavenging activity; test: Antioxidant activity assessed as DPPH radical scavenging activity at 10 uM
[3] = Antioxidant activity assessed as time required to inhibit AAPH-induced oxidation of DNA by TBARS assay
[4] = Antioxidant activity assessed as ABTS radical scavenging activity at 5 uM
[5] = Antioxidant activity assessed as inhibition of hydroxyl radical-induced oxidation of DNA at 0.2 mM after 30 mins by TBARS assay relative to control
[6] = Antioxidant activity assessed as inhibition of Cu2+/GSH-induced oxidation of DNA at 0.2 mM measured every 30 mins by TBARS assay
[7] = Antioxidant activity assessed as inhibition of AAPH-induced oxidation of DNA at 1 to 400 uM measured every 2 hrs by TBARS assay

Row | Compound | K [1] [M⁻¹ s⁻¹] | K [2] [M⁻¹ s⁻¹] | TIME [3] [h] | K [4] [M⁻¹ s⁻¹] | inhibition [5] [%] | inhibition [6] | inhibition [7]
1 | COc1cc(C2CC(c3cc4ccccc4oc3=O)=NN2c2ccccc2)ccc1O (stereo not drawn) | 6740 | 2540 | 0.0313 | 5990 | 53.9 | – | –
2 | O=c1oc2ccccc2cc1C1=NN(c2ccccc2)C(c2ccc(O)cc2)C1 (stereo not drawn) | 5820 | 2440 | 0.0173 | 11200 | 81.1 | – | –
3 | O=c1oc2ccccc2cc1C1=NN(c2ccccc2)C(c2cccc(O)c2)C1 (stereo not drawn) | 7230 | 700 | 0.016 | 4310 | 66.4 | – | –
4 | O=c1oc2ccccc2cc1C1=NN(c2ccccc2)C(c2ccc(O)cc2O)C1 (stereo not drawn) | 7900 | 3720 | 0.0343 | 24600 | 35.5 | Active | –
5 | O=c1oc2ccccc2cc1C1=NN(c2ccccc2)C(c2ccc(O)c(O)c2)C1 (stereo not drawn) | 6920 | 8830 | 0.0327 | 12900 | 43.4 | Active | –
6 | O=c1oc2ccccc2cc1C1=NN(c2ccccc2)C(c2ccccc2O)C1 (stereo not drawn) | 4350 | 540 | 0.0192 | 7440 | 44.2 | – | –
7 | O=c1oc2ccccc2cc1C1=NN(c2ccccc2)C(c2ccccc2)C1 (stereo not drawn) | – | – | – | – | 67.8 | Active | inactive
8 | COc1ccc(C2CC(c3cc4ccccc4oc3=O)=NN2c2ccccc2)cc1 (stereo not drawn) | – | – | – | – | 75.3 | Active | inactive
